The supplement of paper PMC10307832

Legend:
Test in all cases: relative viability (nuclei count vs DMSO), 5 days (fraction); higher = more cells survive
[1] = compound: Cc1ccc(C(=O)Nc2ccc(CN3CCN(C)CC3)c(C(F)(F)F)c2)cc1C#Cc1cnc2cccnn12 [Ponatinib] + N=C(N)NC(=N)NCCc1ccccc1 [Phenformin] (partner 250 µM)
How it was run: (§1)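 Lung cancer cell lines in 1536-well plates were dosed by pin tool the day after seeding, either with one drug alone or with a fixed anchor-drug dose plus five library-drug doses (not always all listed) in √10 steps. After 5 days, cells were fixed and their nuclei stained in one step (final 0.05% Triton X-100, 1% formaldehyde, 1 ug/ml Hoechst), then counted on 4× images. Relative viability is the nuclei count in treated wells divided by that in vehicle wells. Values are medians of duplicate plates.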

[2] = compound: Cc1ccc(Nc2nccc(N(C)c3ccc4c(C)n(C)nc4c3)n2)cc1S(N)(=O)=O [Pazopanib] + CC1(C)CCC(c2ccc(Cl)cc2)=C(CN2CCN(c3ccc(C(=O)NS(=O)(=O)c4ccc(N[C@H](CCN5CCOCC5)CSc5ccccc5)c(S(=O)(=O)C(F)(F)F)c4)cc3)CC2)C1 [Navitoclax] (partner 0.5 µM)
How it was run: as §1

[3] = compound: Cc1ccc(C(=O)Nc2ccc(CN3CCN(C)CC3)c(C(F)(F)F)c2)cc1C#Cc1cnc2cccnn12 [Ponatinib] + CC(=O)Nc1cccc(-n2c(=O)n(C3CC3)c(=O)c3c(Nc4ccc(I)cc4F)n(C)c(=O)c(C)c32)c1 [Trametinib] (partner 0.02 µM)
How it was run: as §1

[4] = compound: Cc1ccc(C(=O)Nc2ccc(CN3CCN(C)CC3)c(C(F)(F)F)c2)cc1C#Cc1cnc2cccnn12 [Ponatinib] + Nc1ncn([C@H]2C[C@H](O)[C@@H](CO)O2)c(=O)n1 [Decitabine] (partner 2 µM)
How it was run: as §1

Cell Line | relative viability ([1]; first compound 0.002 µM) | relative viability ([1]; first compound 0.006325 µM) | relative viability ([1]; first compound 0.06325 µM) | relative viability ([1]; first compound 0.2 µM) | relative viability ([2]; first compound 0.01 µM) | relative viability ([2]; first compound 0.03162 µM) | relative viability ([2]; first compound 0.1 µM) | relative viability ([2]; first compound 0.3162 µM) | relative viability ([2]; first compound 1 µM) | relative viability ([3]; first compound 0.002 µM) | relative viability ([3]; first compound 0.006325 µM) | relative viability ([3]; first compound 0.06325 µM) | relative viability ([3]; first compound 0.2 µM) | relative viability ([4]; first compound 0.002 µM) | relative viability ([4]; first compound 0.006325 µM) | relative viability ([4]; first compound 0.06325 µM) | relative viability ([4]; first compound 0.2 µM)
NCI-H1650 | 0.454 | 0.521 | 0.389 | 0.37 | 1.28 | 1.26 | 1.44 | 1.18 | 1.04 | 0.583 | 0.543 | 0.801 | 0.474 | 0.328 | 0.653 | 0.449 | 0.324
BEN | 0.253 | 0.288 | 0.253 | 0.264 | 0.0655 | 0.0679 | 0.0737 | 0.0724 | 0.0586 | 1.02 | 0.967 | 0.982 | 0.768 | 0.723 | 0.687 | 0.699 | 0.656
EMC-BAC-2 | 0.495 | 0.449 | 0.508 | 0.487 | 1.04 | 1.21 | 1.15 | 1.15 | 1.15 | 0.875 | 0.897 | 0.91 | 0.718 | 0.927 | 0.899 | 1.04 | 0.842
LU99A | 0.823 | 0.873 | 0.744 | 0.859 | 0.697 | 0.819 | 0.769 | 0.773 | 0.843 | 0.476 | 0.554 | 0.342 | 0.305 | 0.803 | 0.968 | 0.992 | 0.789
ABC-1 | 0.215 | 0.23 | 0.224 | 0.263 |  |  |  |  |  |  |  |  |  | 1 | 1.03 | 1.16 | 0.91
NCI-H358 | 0.375 | 0.46 | 0.4 | 0.299 |  |  |  |  |  | 0.162 | 0.147 | 0.12 | 0.103 | 0.193 | 0.326 | 0.221 | 0.204
NCI-H1299 |  |  |  |  | 1.04 | 1.03 | 1.03 | 1.1 | 1.02 |  |  |  |  |  |  |  | 
EBC-1 |  |  |  |  | 0.364 | 0.436 | 0.454 | 0.442 | 0.427 |  |  |  |  |  |  |  | 
NCI-H2405 | 0.359 | 0.44 | 0.386 | 0.329 | 0.903 | 0.985 | 1.05 | 1.27 | 1.07 | 0.557 | 0.611 | 0.435 | 0.342 | 0.762 | 0.754 | 0.821 | 0.685
NCI-H1993 | 0.57 | 0.512 | 0.532 | 0.508 | 0.734 | 0.735 | 0.988 | 1.01 | 0.889 | 0.539 | 0.506 | 0.64 | 0.572 | 0.549 | 0.583 | 0.671 | 0.61
